Results on three compounds are retold here after paper PMC10164568 (2023).

Each structure is given as a SMILES string.

Assay [1] has as its system 3H3Md-TET (DNA, aptamer) CGGTGGTGCGGTGGTGAAACACCAAAACACCAAAA
The assay is described as follows: ThT displacement fluorescence. The following applies: 10 mM Tris-HCl pH 7.4; 12.5 μM compound; ThT displaced.

Assay [2] relates to H-BB (DNA, hairpin) ACATAATTTAATATTTATGTTAACATAAATATTAAATTATGT
The assay is described as follows: UV-vis absorption shift. The following applies: 10 mM Tris-HCl pH 7.4; 2.5 μM ThT in UV-vis.

Assay [3] has as its system 6H3M0 (DNA, hairpin) TTTTTTTTTTTTTTTTTTTTTTTTTAAAAAAAAAAAAAAAAAAAAAAAAAAAAAAA
Put plainly: ThT fluorescence enhancement. The settings on record: 10 mM Tris-HCl pH 7.4, room temperature; 1 μM DNA, 1 μM ThT.

For the compound `CN(C)[C@@H]1C(=O)C(C(N)=O)=C(O)[C@@]2(O)C(=O)C3=C(O)c4c(O)cccc4[C@@](C)(O)[C@H]3[C@H](O)[C@@H]12`, the binding result in assay [1] is listed as “weak”.
In the case of `Cc1ccc2c(c1)sc(-c1ccc(N(C)C)cc1)[n+]2C`, the binding result in assay [2] and in assay [3] was “weak” each time.
As for `C[C@H]1c2cccc(O)c2C(=O)C2=C(O)[C@]3(O)C(=O)C(C(N)=O)=C(O)[C@@H](N(C)C)[C@@H]3[C@@H](O)[C@@H]21`, the binding result in assay [1] is recorded as “weak”.
